The conditions of series [1]: per 1 mg, according to the National Formulary, cited from earlier work.
For series [2] the following is noted: animal studies; cited from earlier work.
In series [3] the test system is DM individuals with the Hp 2-2 genotype. Kind of series: ICARE study: randomized placebo-controlled trial of vitamin E, cardiovascular events (MI, stroke, CVD death). Type of series: in vivo, human. From the text:
The study protocol of the ICARE study involves the following: participants were drawn from 47 primary health clinics of the […] Health Services in the northern sector of Israel. […] These Hp 2-2 individuals were randomly assigned to treatment with either vitamin E or placebo. The major study outcomes (MI, stroke, CVD death) were identified prospectively in this population over an 18 month period. A preplanned secondary analysis of ICARE was to assess the ability of vitamin E therapy to influence outcomes in those ICARE participants who were also taking statins. Statin use as prospectively defined in ICARE was based on the use of statins by the participant in at least eight of the twelve months preceding enrollment of the participant in the study. The decision to use statins for a particular participant was under the discretion of the patient's primary care physician and was in no way influenced by the patient's participation in the ICARE study […] However, only about half of the Hp 2-2 DM participants in ICARE received statin therapy. […] Of the 801 Hp 2-2 individuals taking […] cohort, 386 were randomized to vitamin E and 415 to placebo. There was no significant difference in the baseline characteristics, concurrent medications, or diabetes characteristics between those individuals taking statins who were randomized to placebo or vitamin E.

Series [4] relates to cultured endothelial cells. The note with it: vitamin E added to the cellular preparation; cited from earlier work.
The conditions of series [5]: double-blind protocols and other large studies, even at high doses; cited from earlier work.

Where two headings read alike, the source gives them in different places.

Regarding `Cc1c(C)c2c(c(C)c1O)CCC(C)(CCCC(C)CCCC(C)CCCC(C)C)O2` (racemic) [dl-alpha-tocopherol], the “specific activity (IU per milligram)” value in series [1] is 1.10 IU.
Turning to `CC(=O)Oc1c(C)c(C)c2c(c1C)CC[C@@](C)(CCC[C@H](C)CCC[C@H](C)CCCC(C)C)O2` (racemic) [dl-alpha-tocopheryl acetate], in series [1] (listed as all-rac-α-tocopherol acetate), the “specific activity (IU per milligram)” value was 1.00 IU.
With `Cc1c(C)c2c(c(C)c1O)CC[C@@](C)(CCC[C@H](C)CCC[C@H](C)CCCC(C)C)O2` [d-alpha-tocopherol], in series [1], the “specific activity (IU per milligram)” value is on record as 1.49 IU.
Consider `CC(=O)Oc1c(C)c(C)c2c(c1C)CC[C@@](C)(CCC[C@H](C)CCC[C@H](C)CCCC(C)C)O2` [d-alpha-tocopheryl acetate], for which the “specific activity (IU per milligram)” value in series [1] (listed as RRR-.alpha-tocopherol acetate) is on record as 1.36 IU.
Regarding alpha-tocopherol [vitamin E], in series [2], the carcinogenicity / teratogenicity result is “not carcinogenic or teratogenic”. Also, the “event rate (MI, stroke, CVD death)” value in series [3] (Hp 2-2 DM individuals taking statins (at least eight of the twelve months preceding enrollment), randomized to vitamin E, 18 month period) was found to be 1.3%; in series [3] (statin use widened to at least one of the twelve months preceding enrollment, p=0.013 vs placebo) it was 1.7%. Besides, the “hazard ratio [HR] vs placebo” value in series [3] (Hp 2-2 DM individuals taking statins, vitamin E vs placebo, 95% CI 0.15-0.83, p=0.017 by log-rank) is listed as 0.31. Besides, the “reduction in CVD events” value in series [3] (all Hp 2-2 DM participants in ICARE, vitamin E vs placebo) came to 50%. Further, in series [4], the “oxidative modification of LDL” value is “totally inhibited”. In addition, the side effects entry in series [5] is “few side effects”.

Source of the values: patent US20090137617A1, “USE OF HAPTOGLOBIN GENOTYPING IN DIAGNOSIS AND TREATMENT OF CARDIOVASCULAR DISEASE” (priority 2007, published 2009).
